Publication PMC5980303 (CPT: Pharmacometrics & Systems Pharmacology, 2018)
“And” between values parts separate entries of the source, which are not always exact repeats. Equal entries are not always repeated. Marks after values point to notes of the source that are not given here.

Key:
[1] = cited from earlier work
[2] = cited from earlier work; remark: listed apart in the source
[3] = Integrated population pharmacokinetic model
[4] = doses of 15 mg or 20 mg in the absence of food; cited from earlier work
[5] = final population PK model, comedication factor on CL/F

For `O=C(NC[C@H]1CN(c2ccc(N3CCOCC3=O)cc2)C(=O)O1)c1ccc(Cl)s1` [rivaroxaban], the “Biopharmaceutics Classification System class” value [1] is given as “class 2”, the “permeability (BCS classification)” value [1] is given as “high permeability” and the “solubility (BCS classification)” value [1] is given as “low solubility”. The “fraction of the dose eliminated renally as unchanged drug” value [2] was “Approximately one‐third”, the “θCL/F, VTE >72 h (study-specific factor on CL/F)” value ([3]; VTE prevention, >72 hours, relative to VTE treatment (factor = 1)) was 1.29 Proportion and the “θCL/F, VTE ≤72 h (study-specific factor on CL/F)” value ([3]; VTE prevention, ≤72 hours, relative to VTE treatment (factor = 1)) was 1.04 Proportion. The “θCL/F, ACS (study-specific factor on CL/F)” value ([3]; acute coronary syndrome population, relative to VTE treatment (factor = 1)) was 1.14 Proportion, the “θCL/F, AF (study-specific factor on CL/F)” value ([3]; atrial fibrillation population, relative to VTE treatment (factor = 1)) was 0.85 Proportion and 0.849 Proportion and the “D50 (dose parameter of relative bioavailability function)” value ([3]; final population PK model) was 14.4 mg. The “ω2 CL/F (interindividual variability)” value ([3]; final population PK model) was 0.167 (10.3) ^d Variance, the “ω2 CL/F, V/F” value ([3]; final population PK model) was 0.0674 Covariance and the “ω2 ka (interindividual variability)” value ([3]; final population PK model) was 0.628 (32.8) ^d Variance. The “ω^2 V/F (interindividual variability)” value ([3]; final population PK model) was 0.0391 (25.7) ^d Variance, the “ka (first-order absorption rate constant)” value ([3]; final population PK model (run 12), 4,918 patients, oral rivaroxaban) was 0.821 h⁻¹ and the “θCL/F, CYP3A4 inducer” value [3, 5] was 1.30 Proportion. For the same compound, the “θCL/F, Medium CYP3A4 inhibitor” value [3, 5] was 0.863 Proportion, the “θCL/F, Strong CYP3A4 inhibitor” value [3, 5] was 0.978 Proportion and the “θCL/F, Weak CYP3A4 inhibitor” value [3, 5] was 0.939 Proportion. The “θCL/F, PGP” value ([3]; final population PK model, comedication with P-gp inhibitor, factor on CL/F) was 0.966 Proportion, the “θCL/F, CrCL” value ([3]; final population PK model, effect of Tietz-truncated CrCL on CL/F) was 0.406 Power and the “θV/F, Age” value ([3]; final population PK model, effect of age on V/F) was −0.189 Power. The “θV/F, Sex” value ([3]; final population PK model, effect of gender (female) on V/F) was 0.889 Proportion, the “θCL/F, weight” value ([3]; final population PK model, effect of weight on CL/F) was −0.278 Power and the “θV/F, weight” value ([3]; final population PK model, effect of weight on V/F) was 0.216 Power. The “Fmax (relative bioavailability as a function of dose)” value ([3]; final population PK model, fixed, relative bioavailability fixed at 1.0 for a 10 mg dose) was 1.25 Proportion, the “σ2 prop (residual variability)” value ([3]; final population PK model, proportional residual error) was 0.203 (10.3) ^d Variance and the “Fmin (relative bioavailability as a function of dose)” value ([3]; final population PK model, relative to 10 mg dose (F = 1)) was 0.590 Proportion. For the same compound, the “AUC increase in the presence of strong CYP3A4 inhibitors” value ([3]; integrated population PK model) was 1.02 fold and the “bioavailability and absorption rate vs dose” value [4] was “less than dose proportional”.
